# Test results from US7700765B2, “DNA minor groove binding compounds” (University of Strathclyde, priority 2001, dated 2010).
# Experiments:
# Aspergillus nidulans = assay: Minimum inhibitory concentration (MIC) against microorganisms; type: cell-based; settings: Organism: Aspergillus nidulans
# Source text: (§1) Minimum inhibitory concentrations (MICs) against microorganisms (e.g. S. Aureus, E. coli, S. faecalis, P. vulgaris, MRSA, Aspergillus niger, Candida albicans, Klebs. aerogenes, Ent. cloacae, Mycobacterium fortuitum or Aspergillus nidulans) for compounds of the invention may be measured using procedures such as those described in A. J. Drummond and R. D. Waigh “The development of microbiological methods for phytochemical screening” Recent Res. Devel. Phytochem. 4, 143-152 (2000).
# Aspergillus niger = assay: as above; type: cell-based; settings: Organism: Aspergillus niger
# Source text: as §1
# Candida albicans = assay: as above; type: cell-based; settings: Organism: Candida albicans
# Source text: as §1
# E. coli = assay: as above; type: cell-based; settings: Escherichia coli; Organism: E. coli
# Source text: as §1
# Ent. cloacae = assay: as above; type: cell-based; settings: Enterobacter cloacae; Organism: Ent. cloacae
# Source text: as §1
# Klebs. aerogenes = assay: as above; type: cell-based; settings: Klebsiella aerogenes; Organism: Klebs. aerogenes
# Source text: as §1
# MRSA = assay: as above; type: cell-based; settings: Staphylococcus aureus; Organism: MRSA
# Source text: as §1
# Mycobacterium fortuitum = assay: as above; type: cell-based; settings: Mycolicibacterium fortuitum; Organism: Mycobacterium fortuitum
# Source text: as §1
# P. vulgaris = assay: as above; type: cell-based; settings: Proteus vulgaris; Organism: P. vulgaris
# Source text: as §1
# S. aureus = assay: as above; type: cell-based; settings: Staphylococcus aureus; Organism: S. aureus
# Source text: as §1
# S. faecalis = assay: as above; type: cell-based; settings: Enterococcus faecalis; Organism: S. faecalis
# Source text: as §1
# [1] = test system: double-stranded DNA oligonucleotide AAATTATATTAT (SEQ ID NO:1); assay: Capillary electrophoresis ligand-DNA binding study; settings: AAATTATATTAT versus GGGCCGCGCCGC
# Source text: Capillary electrophoresis was used to study of ligand-DNA binding (see: (i) Hamdan, I. I.; Skellern, G. G.; and Waigh, R. D. “Separation of pd(GC)12 from pd(AT)12 by free solution capillary electrophoresis”, J. Cromatogr. A. 806, 165-168 (1998); (ii) Hamdan, I. I.; Skellern, G. G.; and Waigh, R. D. “Use of capillary electrophoresis in the study of ligand-DNA interactions”, Nucleic Acids Research 26, 3053-3058 (1998); (iii) Hamdan, I. I.; Skellern, G. G.; and Waigh, R. D. “Ligand binding to oligonucleotides” Methods in Molecular Biology, Vol. 163, “Capillary Electrophoresis of Nucleic acids”, Vol 2, pages 379-391, K. R. Mitchelson and J. Cheng Eds., Humana Press, New Jersey, (2000)).
# (§2) Typically, ligand binding results in a change in migration time of the DNA and sometimes a change in peak shape.
# (§3) The following are shown in FIGS. 1-6: • (a) the experimental conditions, including the DNA sequence(s); • (b) the result of sequential addition of ligand; and • (c) the structure of the ligand being investigated. Key to FIGS. 1 to 6: • r0=electropherogram in the absence of drug • rX=(where X is 0.5, 1, 2, 3 or 4) electropherogram in the presence of drug, where the drug:DNA ratio (in terms of concentration) is X:1
# This ratio corresponds to the binding ratio. […]
# DNA = settings: binding to DNA; read-out: dissociation constants; cited from earlier work
# [2] = test system: double-stranded DNA decamer CGACTAGTCG (SEQ ID NO:3); assay: Capillary electrophoresis ligand-DNA binding study; settings: drug to DNA ratio up to 4:1
# Source text: as §2, §3
# This ratio corresponds to the binding ratio.
# [3] = test system: NFκB protein-DNA complexes; assay: NFκB DNA-binding assay (gel shift) with macrophage nuclear extracts; type: biochemical, Murine; settings: 1 μL of a 1 mM solution, final volume 10 μL; nuclear protein from macrophages exposed to LPS
# Description: Murine macrophages (obtained and cultured as described in Cell. Signal. 11(7), 491 (1999), hereinafter referred to as “Reference 1”, the disclosures of which document are hereby incorporated by reference) were exposed to vehicle (see Reference 1) or 1 μg/mL lipopolysaccharide (LPS; the active component of gram-negative endotoxin and a strong activator of the Nuclear Factor kappa B (NFκB) pathway; the particular LPS being obtained from Salmonella minnesota) for 1 hour and nuclear extracts prepared by standard procedures (see Brit. J. Pharmacol. 134, 393 (2001), hereinafter referred to as “Reference 2”, the disclosures of which document are hereby incorporated by reference).
# Aliquots of compounds (1 μL of a 1 mM solution) were incubated with 1 μL (0.035 pmol) of a ^32P-labelled 20 bp double-stranded DNA oligonucleotide (representing the consensus binding sequence for NFκB proteins (see Reference 2 and Brit. J. Pharmacol. 134, 1629-1638 (2001), the disclosures of which latter document are hereby incorporated by reference)) for 30 min at room temperature. […] The formation of NFκB protein-DNA complexes and potential inhibition of complex formation in the presence of the above compounds was detected by autoradiography. […]
Compound,MIC (Aspergillus nidulans),MIC (Aspergillus niger),MIC (Candida albicans),MIC (E. coli),MIC (Ent. cloacae),MIC (Klebs. aerogenes),MIC (MRSA),MIC (Mycobacterium fortuitum),MIC (P. vulgaris),MIC (S. aureus),MIC (S. faecalis),affinity for the sequence [2],effect on LPS-stimulated NFκB-DNA binding activity [3],AT selectivity [1],Kd (DNA)
Cn1cc(NC(=O)c2cc(NC(=O)CN=C(N)N)cn2C)cc1C(=O)NCCC(=N)N [netropsin],,,,,,,,,,,,,,AT selective,~10 µM
"Cn1cc(NC(=O)c2cc(NC(=O)c3cc(NC=O)cn3C)cn2C)cc1C(=O)NCCC(=N)N [distamycin, reference compound]",,,,,,,,,,,,no affinity,,,~10 µM
"OC(Cn1cncn1)(Cn1cncn1)c1ccc(F)cc1F [Fluconazole, reference compound]",40.8 µM,> 327 µM,81.6 µM,,,,,,,,,,,,
"CC(C)n1cc(NC(=O)c2cc(NC=O)cn2C)cc1C(=O)Nc1cc(C(=O)NCCCN(C)C)n(C)c1 [Example 2, N-[5-({[5-({[3-(Dimethylamino)propyl]amino}carbonyl)-1-methyl-1H-pyrrol-3-yl]amino}carbonyl)-1-isopropyl-1H-pyrrol-3-yl]-4-(formylamino)-1-methyl-1H-pyrrole-2-carboxamide]",,,,,,,,,,,,,little effect,,
"[H]/N=C(/N)N[C@H]1[C@H](O)[C@@H](O)[C@H](O[C@@H]2O[C@@H](C)[C@](O)(C=O)[C@H]2O[C@@H]2O[C@@H](CO)[C@H](O)[C@@H](O)[C@@H]2NC)[C@@H](N/C(N)=N\[H])[C@@H]1O [Streptomycin, reference compound]",,,,,,,,21.5 µM,,,,,,,
"CC(C)CCn1cc(NC(=O)c2ccc3[nH]c(C(=O)Nc4cc(C(=O)Nc5cc(C(=O)NCCCN6CCOCC6)n(C)c5)n(CCC(C)C)c4)cc3c2)cc1C(=O)Nc1cc(C(=O)NCCCN2CCOCC2)n(C)c1 [Example 17, N^2,N^5-Bis[1-isopentyl-5-({[1-methyl-5-({[3-(4-morpholinyl)propyl]amino}-carbonyl)-1H-pyrrol-3-yl]amino}carbonyl)-1H-pyrrol-3-yl]-1H-indole-2,5-dicarboxamide]",77.7 µM,> 77.7 µM,> 77.7 µM,> 77.7 µM,> 77.7 µM,38.9 µM,> 77.7 µM,> 77.7 µM,77.7 µM,19.4 µM,77.7 µM,,,,
"CC1(C)S[C@@H]2[C@H](NC(=O)[C@H](N)c3ccc(O)cc3)C(=O)N2[C@H]1C(=O)O [Amoxicillin, reference compound]",,,,2 µM,4 µM,32.3 µM,16.1 µM,,8.1 µM,0.49 µM,0.49 µM,,,,

# More lines, main results first:
MIC (Aspergillus nidulans),MIC (Aspergillus niger),MIC (Candida albicans),MIC (E. coli),MIC (Ent. cloacae),MIC (Klebs. aerogenes),MIC (MRSA),MIC (Mycobacterium fortuitum),MIC (P. vulgaris),MIC (S. aureus),MIC (S. faecalis),affinity for the sequence [2],effect on LPS-stimulated NFκB-DNA binding activity [3],Compound,AT selectivity [1],Kd (DNA)
20.1 µM,> 80.3 µM,> 80.3 µM,> 80.3 µM,> 80.3 µM,> 80.3 µM,10 µM,40.1 µM,> 80.3 µM,80 µM,10 µM,,,"CC(C)c1sc(NC(=O)c2cc(NC(=O)c3ccc4c(c3)CCc3cc(C(=O)Nc5cc(C(=O)Nc6nc(C(=O)NCCCN(C)C)c(C(C)C)s6)n(C)c5)ccc3-4)cn2C)nc1C(=O)NCCCN(C)C [Example 28, N^2,N^7-Bis[5-({[4-({[3-(dimethylamino)propyl]amino}carbonyl)-5-isopropyl-1,3-thiazol-2-yl]amino}carbonyl)-1-methyl-1H-pyrrol-3-yl]-9,10-dihydro-2,7-phenanthrenedicarboxamide]",,
38.1 µM,76.1 µM,76.1 µM,> 152 µM,76.2 µM,76.2 µM,38.1 µM,19 µM,152 µM,4.7 µM,9.5 µM,,,"CC(C)c1sc(NC(=O)c2cc(NC(=O)c3cc(NC=O)cn3C)cn2C)nc1C(=O)NCCCN(C)C [Example 3, N-[3-(Dimethylamino)propyl]-2-({[4-({[4-(formylamino)-1-methyl-1H-pyrrol-2-yl]carbonyl}amino)-1-methyl-1H-pyrrol-2-yl]carbonyl}amino)-5-isopropyl-1,3-thiazole-4-carboxamide]",,
9.5 µM,38.1 µM,38.1 µM,> 152 µM,9.5 µM,38.1 µM,19.1 µM,19 µM,152 µM,4.8 µM,9.5 µM,,,"CC(C)c1sc(NC(=O)c2cc(NC=O)cn2C)nc1C(=O)Nc1cc(C(=O)NCCCN(C)C)n(C)c1 [Example 7, N-[5-({[3-(Dimethylamino)propyl]amino}carbonyl)-1-methyl-1H-pyrrol-3-yl]-2-({[4-(formylamino)-1-methyl-1H-pyrrol-2-yl]carbonyl}amino)-5-isopropyl-1,3-thiazole-4-carboxamide]",,
